Results: US20050065202A1, “Use of sulphonamide derivatives for the manufacture of a medicament for the prophylaxis and/or treatment of disorders of food ingestion” (priority 2003, published 2005)
Where a name gives a salt, the structure may show the parent alone. One block for each compound: values may come before it.

Assays:
[1] = biological target: T1, 5HT6-human recombinant receptor (Homo sapiens, UniProt P50406); test: Binding to serotonin receptor 5HT6 ([3H]-LSD displacement, HEK-293 cell membranes); conditions: for inhibition at 1 µM: read-out: % Inhibition 10^−6 M
T1 construct: purchased Receptor Biology; host or cells: HEK-293 cell membranes
T1 sequence (P50406 whole entry): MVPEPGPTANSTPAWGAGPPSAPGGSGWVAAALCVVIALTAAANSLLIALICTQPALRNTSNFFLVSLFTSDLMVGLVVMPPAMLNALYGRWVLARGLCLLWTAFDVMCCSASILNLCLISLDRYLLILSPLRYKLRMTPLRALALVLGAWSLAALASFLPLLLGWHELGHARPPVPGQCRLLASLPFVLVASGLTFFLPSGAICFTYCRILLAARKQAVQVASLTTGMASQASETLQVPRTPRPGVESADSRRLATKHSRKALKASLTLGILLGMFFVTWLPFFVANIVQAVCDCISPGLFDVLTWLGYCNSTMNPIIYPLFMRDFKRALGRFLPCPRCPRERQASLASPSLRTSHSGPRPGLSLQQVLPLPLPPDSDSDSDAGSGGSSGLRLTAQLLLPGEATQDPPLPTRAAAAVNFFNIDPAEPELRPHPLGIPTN
Protocol: Binding to Serotonin Receptor 5HT6
The respective part of the literature description is hereby incorporated by reference and forms part of the disclosure. […] Tests were made in triplicate.
The binding of the inventively used sulphonamide derivatives of general formula (I) was determined as described above.

Compound: CCN(CC)CCc1c[nH]c2ccc(NS(=O)(=O)c3cccc4ccccc34)cc12 (as salt: HCl) [Example 3, Hydrochloride N-[3-(2-diethylaminoethyl)-1H-indol-5-yl]naphthalene-1-sulphonamide]
melting point: 255 to 257 °C

Compound: CN1CCC(c2c[nH]c3ccc(NS(=O)(=O)c4cccc5ccccc45)cc23)CC1 (as salt: HCl) [Example 13, N-[3-(1-methylpiperidin-4-yl)-1H-indol-5-yl]naphthalene-1-sulphonamide hydrochloride]
melting point: 212 °C (dec.)

Compound: CCN(CC)CCc1c[nH]c2ccc(NS(=O)(=O)c3sc4ccc(Cl)cc4c3C)cc12 [Example 1, N-[3-(2-diethylaminoethyl)-1H-indol-5-yl]-5-chloro-3-methylbenzo[b]thiophene-2-sulphonamide]
melting point: 170 to 173 °C
Ki [1]: 0.28 nM
inhibition at 1 µM [1]: 98.1 ± 4%

Compound: CCN(CC)CCc1c[nH]c2ccc(NS(=O)(=O)c3cccc4ccccc34)cc12 [Example 3, Hydrochloride N-[3-(2-diethylaminoethyl)-1H-indol-5-yl]naphthalene-1-sulphonamide]
inhibition at 1 µM [1]: 96.6 ± 5.2%

Compound: CCN(CC)CCc1c[nH]c2ccc(NS(=O)(=O)c3cc(Cl)cc(Cl)c3)cc12 [Example 4, N-[3-(2-diethylaminoethyl)-1H-indol-5-yl]-3,5-dichlorobenzenesulphonamide]
melting point: 168 to 170 °C
inhibition at 1 µM [1]: 96.2 ± 0.6%

Compound: CCN(CC)CCc1c[nH]c2ccc(NS(=O)(=O)c3ccc(-c4ccccc4)cc3)cc12 [Example 5, N-[3-(2-diethylaminoethyl)-1H-indol-5-yl]-4-phenylbenzenesulphonamide]
melting point: 161 to 163 °C
inhibition at 1 µM [1]: 101.2 ± 0.1%

Compound: CCN(CC)CCc1c[nH]c2ccc(NS(=O)(=O)c3ccc(Cl)s3)cc12 [Example 6, N-[3-(2-diethylaminoethyl)-1H-indol-5-yl]-5-chlorothiophene-2-sulphonamide]
melting point: 180 to 181 °C
Ki [1]: 8.7 nM
inhibition at 1 µM [1]: 97.6 ± 1.8%

Compound: Cc1c(S(=O)(=O)Nc2ccc3[nH]cc(CCN(C)C)c3c2)sc2ccc(Cl)cc12 [Example 7, N-[3-(2-dimethylaminoethyl)-1H-indol-5-yl]-5-chloro-3-methylbenzo[b]thiophene-2-sulphonamide]
melting point: 226 to 227 °C
Ki [1]: 0.13 nM
inhibition at 1 µM [1]: 103 ± 7.9%

Compound: CN(C)CCc1c[nH]c2ccc(NS(=O)(=O)c3cccc4ccccc34)cc12 [Example 8, N-[3-(2-dimethylaminoethyl)-1H-indol-5-yl]naphthalene-1-sulphonamide]
melting point: 203 to 205 °C
Ki [1]: 0.76 nM
inhibition at 1 µM [1]: 94.5 ± 7%

Compound: CN(C)CCc1c[nH]c2ccc(NS(=O)(=O)c3c(Cl)nc4sccn34)cc12 [Example 9, N-[3-(2-dimethylamino-ethyl)-1H-indol-5-yl]-6-chloroimidazo[2,1-b]thiazol-5-sulphonamide]
inhibition at 1 µM [1]: 96.8 ± 3.7%

Compound: Cc1c(S(=O)(=O)Nc2ccc3[nH]cc(C4CCN(C)CC4)c3c2)sc2ccc(Cl)cc12 [Example 11, N-[3-(1-methylpiperidin-4-yl)-1H-indol-5-yl]-5-chloro-3-methylbenzo[b]thiophene-2-sulphonamide hydrochloride]
Ki [1]: 0.98 nM
inhibition at 1 µM [1]: 101%

Compound: CN1CCC(c2c[nH]c3ccc(NS(=O)(=O)c4cccc5ccccc45)cc23)CC1 [Example 13, N-[3-(1-methylpiperidin-4-yl)-1H-indol-5-yl]naphthalene-1-sulphonamide hydrochloride]
inhibition at 1 µM [1]: 98.3%

melting point: 284 °C (dec.)
Compound: CN1CCC(c2c[nH]c3ccc(NS(=O)(=O)c4ccc(Cl)s4)cc23)CC1 [Example 14, N-[3-(1-methylpiperidin-4-yl)-1H-indol-5-yl]-5-chlorothiophene-2-sulphonamide]

melting point: 247 to 248 °C
Compound: CN1CCC(c2c[nH]c3ccc(NS(=O)(=O)c4ccc(-c5ccccc5)cc4)cc23)CC1 [Example 15, N-[3-(1-methylpiperidin-4-yl)-1H-indol-5-yl]-4-phenylbenzenesulphonamide]

melting point: 280 °C (dec.)
Compound: CN1CCC(c2c[nH]c3ccc(NS(=O)(=O)c4cccc5cccnc45)cc23)CC1 [Example 16, N-[3-(1-methylpiperidin-4-yl)-1H-indol-5-yl]quinoline-8-sulphonamide]

Compound: CCN(CC)CCc1c[nH]c2ccc(NS(=O)(=O)c3ccc4ccccc4c3)cc12 [Example 17, N-[3-(2-diethylaminoethyl)-1H-indol-5-yl]naphthalene-2-sulphonamide]
melting point: 172 to 173 °C
inhibition at 1 µM [1]: 102%
